One may read the inhibition as how much of the control response was suppressed.

In data set [1] the test system is Vero cells. As to the kind of experiment: Cell viability, CellTiter 96 assay, Vero. Particulars: 24 h treatment.
Data set [2] concerns Huh-7 Lunet C3 cells. As to the kind of experiment: Cell viability, CellTiter 96 assay, Huh-7 Lunet C3. The note with it: Huh-7 Lunet C3, 24 h treatment, over 80% cell viability.
Data set [3] concerns KBP (kinesin) movement along MTs in AHRTG cells. As to the kind of experiment: In cell motility assay with kinesin binding peptide probe (KBP). The class given is cell-based, human. Particulars: for KBP mean displacement, decrease / KBP mean velocity, decrease / KBP mean movement / proportion of transported particles (TM/CM), reduction: AHRTG cells, NOC 2.5 µM, PTX 10 µM; for KBP mean displacement, decrease / KBP mean velocity, decrease: vs control; for KBP mean movement / proportion of transported particles (TM/CM), reduction: vs untreated.

Data set [4] has as its system Vero E6 cells. As to the kind of experiment: Cell viability, CellTiter 96 assay, Vero E6. The note with it: Vero E6, 24 h treatment.
Data set [5] relates to Vero E6 cells. Particulars: African green monkey, 24 h.
Data set [6] has as its system Vero cells. Particulars: African green monkey, 24 h.
Data set [7] deals with Huh-7 Lunet C3 cells. The note with it: human, 24 h.
A further data set deals with ASFV BPP30GFP. It is filed as cell-based, African swine fever virus.
In the next data set the test system is VACV vtag2GFP. The class given is cell-based, vaccinia virus.
Data set [8] relates to VSV-G-luc (vesicular stomatitis virus). The class given is cell-based.
The test system of data set [9] is DBP (dynein) movement along MTs in AHRTG cells. As to the kind of experiment: In cell motility assay with dynein binding peptide probe (DBP). It is filed as cell-based, human. Particulars: for DBP mean displacement, decrease / DBP mean velocity, decrease / DBP mean movement / proportion of transported particles (TM/CM), reduction: NOC 2.5 µM, PTX 10 µM; for DBP mean displacement, decrease / DBP mean velocity, decrease: vs control; for DBP mean movement / proportion of transported particles (TM/CM), reduction: vs untreated.

For data set [10], the system named is SARS-CoV-2 strain NL/2020. As to the kind of experiment: microbe, parasite or virus in culture. The class given is cell-based. The note with it: Severe acute respiratory syndrome coronavirus 2; A549-ACE2 cells, 1 h pretreatment, 48 h, optimal dose (PPT 100 nM); read-out: inhibition of SARS-CoV-2 infection.

Like-named read-outs stand apart in the source and are kept apart here.

Take `CCCSc1ccc2nc(NC(=O)OC)[nH]c2c1` [ABZ, albendazole]: the highest non-toxic concentration in the data set with Vero cells [1] is reported as 25 nM; with Huh-7 Lunet C3 cells [2] it was 1 nM; in the data set on Vero E6 cells [4], 25 nM. The “effect on KBP movement (TM/CM ratio)” value in data set [3] was “very low effect on motion”. Further, the “effect on KBP particle displacement” value in data set [3] is “no significant modification”. In data set [3], the “effect on KBP particle velocity” value was “no significant modification”.

As for `COc1cc2c(c(OC)c1OC)-c1ccc(OC)c(=O)cc1[C@@H](NC(C)=O)CC2` [COL, colchicine], the highest non-toxic concentration came to 75 nM with Vero cells [1], 0.2 nM with Huh-7 Lunet C3 cells [2] and 25 nM in the data set on Vero E6 cells [4].

For `CO[C@H]1C(=O)[C@]2(C)[C@@H](OC)C[C@H]3OC[C@@]3(OC(C)=O)[C@H]2[C@H](OC(=O)c2ccccc2)[C@]2(O)C[C@H](OC(=O)[C@H](O)[C@@H](NC(=O)OC(C)(C)C)c3ccccc3)C(C)=C1C2(C)C` [CTX, cabazitaxel], the highest non-toxic concentration is reported as 10 nM in the data set on Vero cells [1], 0.01 nM in the data set on Huh-7 Lunet C3 cells [2] and 25 nM in the data set on Vero E6 cells [4]. The “effect on KBP movement (TM/CM ratio)” value in data set [3] is given as “affected particle motion”.

For the compound `CC(=O)O[C@@]12CO[C@@H]1C[C@H](O)[C@@]1(C)C(=O)[C@H](O)C3=C(C)[C@@H](OC(=O)[C@H](O)[C@@H](NC(=O)OC(C)(C)C)c4ccccc4)C[C@@](O)([C@@H](OC(=O)c4ccccc4)[C@H]21)C3(C)C` [DTX, docetaxel], the highest non-toxic concentration in the data set on Vero cells [1] came out at 10 nM; with Huh-7 Lunet C3 cells [2], 0.03 nM; in the data set with Vero E6 cells [4], 10 nM.

On to `C/C(=C\c1csc(C)n1)[C@@H]1C[C@@H]2O[C@]2(C)CCC[C@H](C)[C@H](O)[C@@H](C)C(=O)C(C)(C)[C@@H](O)CC(=O)N1` [EPO, ixabepilone], for which the highest non-toxic concentration with Vero E6 cells [5] is 25 nM; in the data set on Vero cells [6] it was 25 nM; in the data set on Huh-7 Lunet C3 cells [7], 0.05 nM.

Consider `C=C1C[C@@H]2CC[C@@]34C[C@H]5O[C@H]6[C@@H](O3)[C@H]3O[C@H](CC[C@@H]3O[C@H]6[C@H]5O4)CC(=O)C[C@@H]3[C@@H](OC)[C@@H](C[C@H](O)CN)O[C@H]3C[C@H]3O[C@@H](CC[C@@H]1O2)C[C@@H](C)C3=C` [ERIB, eribulin], for which the values for the highest non-toxic concentration in the data set with Vero E6 cells [5], in the data set with Vero cells [6] and with Huh-7 Lunet C3 cells [7] were 10 nM, 100 nM and 0.01 nM, respectively. Further, the “inhibition of ASFV early infection (BPP30GFP)” value (from here on “inhibition … (BPP30GFP)”) in the data set on ASFV BPP30GFP is “up to 50%”.

For `COC(=O)Nc1nc2ccc(Sc3ccccc3)cc2[nH]1` [FBZ, febendazole], the values for the highest non-toxic concentration in the data set with Vero E6 cells [5], in the data set on Vero cells [6] and with Huh-7 Lunet C3 cells [7] were 50 nM, 75 nM and 1 nM, respectively. Besides, the “inhibition … (BPP30GFP)” value in the data set with ASFV BPP30GFP was 30%. Moreover, the “reduction of VACV (vtag2GFP) viral infection” value in the data set on VACV vtag2GFP is on record as 40%.

Regarding `COc1cc2cc(c1Cl)N(C)C(=O)C[C@H](OC(=O)[C@H](C)N(C)C(C)=O)[C@]1(C)O[C@H]1[C@H](C)[C@@H]1C[C@@](O)(NC(=O)O1)[C@H](OC)/C=C/C=C(\C)C2` [MAYT, maytansine], the highest non-toxic concentration in the data set on Vero cells [1] came to 25 nM; with Huh-7 Lunet C3 cells [2], 0.1 nM; in the data set on Vero E6 cells [4] it was 25 nM. Moreover, the “effect on KBP movement (TM/CM ratio)” value in [3] is “significant reduction of the TM/CM ratio”. The “decrease of VSV infection” value in data set [8] came out at 40%.

With `COC(=O)Nc1nc2ccc(C(=O)c3ccccc3)cc2[nH]1` [MBZ, mebendazole], the highest non-toxic concentration in the data set on Vero E6 cells [5] is given as 10 nM; in the data set with Vero cells [6], 10 nM; in the data set on Huh-7 Lunet C3 cells [7] it was 5 nM. The “concentration at which the DBP TM/CM ratio was affected” value in data set [9] (dose-response 0.1-10 μM MBZ) is over 2.5 µM.

In the case of `COC(=O)Nc1nc2ccc(C(=O)c3cccs3)cc2[nH]1` [NOC, nocodazole], in [9], the “DBP mean displacement, decrease” value is recorded as 44%; the “DBP mean velocity, decrease” value is on record as 30%; the “DBP mean movement / proportion of transported particles (TM/CM), reduction” value is 60%. Moreover, in data set [3], the “KBP mean displacement, decrease” value was 54%; the “KBP mean velocity, decrease” value is on record as 36%; the “KBP mean movement / proportion of transported particles (TM/CM), reduction” value is reported as 68%.

`COc1ccc2c(c1OC)C(=O)O[C@@H]2[C@H]1c2c(cc3c(c2OC)OCO3)CCN1C` [NOS, noscapine]: the highest non-toxic concentration with Vero E6 cells [5], in the data set on Vero cells [6] and with Huh-7 Lunet C3 cells [7] was 100 nM each time. The “effect on KBP movement (TM/CM ratio)” value in data set [3] is on record as “no effect on KBP movement”.

Consider `CC(C)(C)c1[nH]cnc1/C=c1\[nH]c(=O)/c(=C/c2ccccc2)[nH]c1=O` [PLIN, plinabulin], for which the highest non-toxic concentration with Vero cells [1] is listed as 25 nM; in the data set on Huh-7 Lunet C3 cells [2], 0.5 nM; with Vero E6 cells [4] it was 25 nM. Further, the “inhibition … (BPP30GFP)” value in the data set with ASFV BPP30GFP turned out to be 30%. In the data set on VACV vtag2GFP, the “reduction of VACV (vtag2GFP) viral infection” value came out at 50%.

With `COc1cc([C@@H]2c3cc4c(cc3[C@H](O)[C@H]3COC(=O)[C@H]23)OCO4)cc(OC)c1OC` [PPT, podophylotoxin], the results for the highest non-toxic concentration with Vero cells [1], with Huh-7 Lunet C3 cells [2] and in the data set on Vero E6 cells [4] were 50 nM, 0.2 nM and 50 nM, respectively. For the same compound, in data set [10], the inhibition at 0.1 µM came to 60%.

Regarding `CC(=O)O[C@H]1C(=O)[C@@]2(C)[C@H]([C@H](OC(=O)c3ccccc3)[C@]3(O)C[C@H](OC(=O)[C@H](O)[C@@H](NC(=O)c4ccccc4)c4ccccc4)C(C)=C1C3(C)C)[C@]1(OC(C)=O)CO[C@@H]1C[C@@H]2O` [PTX, paclitaxel], the highest non-toxic concentration in the data set with Vero E6 cells [5] was 25 nM. Besides, in [9], the “DBP mean displacement, decrease” value is “no alterations”; the “DBP mean velocity, decrease” value is given as “no alterations”; the “DBP mean movement / proportion of transported particles (TM/CM), reduction” value is 27%. Moreover, in the data set on Vero cells [6], the highest non-toxic concentration stood at 25 nM. Further, in data set [3], the “effect on KBP particle displacement” value was “significantly decreased the displacement of particles”; the “KBP mean displacement, decrease” value is reported as 16%; the “KBP mean velocity, decrease” value was “no meaningful changes”; the “KBP mean movement / proportion of transported particles (TM/CM), reduction” value stood at 17%. Moreover, the highest non-toxic concentration with Huh-7 Lunet C3 cells [7] was found to be 5 nM.

With `CC[C@]1(O)C[C@@H]2CN(CCc3c([nH]c4ccccc34)[C@@](C(=O)OC)(c3cc4c(cc3OC)N(C)[C@H]3[C@@](O)(C(=O)OC)[C@H](OC(C)=O)[C@]5(CC)C=CCN6CC[C@]43[C@@H]65)C2)C1` [VBL, vinblastine], the highest non-toxic concentration in the data set with Vero E6 cells [5] came out at 5 nM; with Vero cells [6] it was 25 nM; in the data set with Huh-7 Lunet C3 cells [7], 0.05 nM. Moreover, the “inhibition … (BPP30GFP)” value in the data set with ASFV BPP30GFP was “up to 50%”. In addition, the “decrease of VSV infection” value in [8] amounted to 90%.

Turning to `CC[C@]1(O)C[C@H]2CN(CCc3c([nH]c4ccccc34)[C@@](C(=O)OC)(c3cc4c(cc3OC)N(C=O)[C@H]3[C@@](O)(C(=O)OC)[C@H](OC(C)=O)[C@]5(CC)C=CCN6CC[C@]43[C@@H]65)C2)C1` [VCR, vincristine], the highest non-toxic concentration stood at 1 nM with Vero E6 cells [5], 1 nM in the data set on Vero cells [6] and 5 nM in the data set with Huh-7 Lunet C3 cells [7].

For the compound `CC[C@]1(O)C[C@@H]2CN(CCc3c([nH]c4ccccc34)[C@@](C(=O)OC)(c3cc4c(cc3OC)N(C)[C@H]3[C@@](O)(C(N)=O)[C@H](O)[C@]5(CC)C=CCN6CC[C@]43[C@@H]65)C2)C1` [VDS, vindesine], the results for the highest non-toxic concentration in the data set on Vero E6 cells [5], with Vero cells [6] and in the data set on Huh-7 Lunet C3 cells [7] were 100 nM, 100 nM and 0.02 nM, respectively. In addition, in the data set with ASFV BPP30GFP, the “inhibition … (BPP30GFP)” value was “up to 50%”. In addition, the “decrease of VSV infection” value in data set [8] was determined as 80%.

For the origin of these results see publication PMC8998746, “Effect of Clinically Used Microtubule Targeting Drugs on Viral Infection and Transport Function” (International Journal of Molecular Sciences, 2022).
